A word on the IC50: it is the midpoint of a concentration-inhibition curve. Read a high IC50 as weaker potency.

The results in this text go back to US8283353B2, “Fused ring compound and use thereof” (Takeda Pharmaceutical Company Limited, priority 2009, dated 2012).

The target in test [1] is T1, human AT1 receptor (Homo sapiens, UniProt P30556).
T1 construct: expressed in transfected cells; membrane fraction
T1 sequence (P30556 1-359): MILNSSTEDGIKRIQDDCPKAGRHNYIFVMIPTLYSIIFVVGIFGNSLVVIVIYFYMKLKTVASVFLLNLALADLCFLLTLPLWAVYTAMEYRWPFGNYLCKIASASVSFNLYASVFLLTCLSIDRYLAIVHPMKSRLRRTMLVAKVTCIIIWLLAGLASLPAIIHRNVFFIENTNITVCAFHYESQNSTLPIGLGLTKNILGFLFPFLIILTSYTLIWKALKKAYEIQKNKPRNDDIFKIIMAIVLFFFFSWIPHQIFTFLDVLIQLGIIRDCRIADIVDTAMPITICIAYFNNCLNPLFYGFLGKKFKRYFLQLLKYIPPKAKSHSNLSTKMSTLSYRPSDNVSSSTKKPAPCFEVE
Put plainly: AT1 receptor antagonistic activity: [125I]-angiotensin II binding assay on human AT1 receptor-expressing CHO-K1 cellular membrane fraction. The note with it: 22.5 pM [125I]-angiotensin II, 1 hr room temperature. In a few lines:
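Competition binding used radiolabelled angiotensin II on stably transfected CHO-K1 membrane fractions in Tris pH 7.4/MgCl2 buffer, optionally containing 0.3 mg/mL fatty acid-free BSA, 1 hr at room temperature. Filtration onto GF/C separated bound tracer, and nonspecific binding was measured with candesartan.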

Test [2] concerns the target T2, human PPARγ (Homo sapiens, UniProt P37231).
T2 construct: expressed in transfected cells
T2 sequence (P37231 1-477 isoform P37231-2): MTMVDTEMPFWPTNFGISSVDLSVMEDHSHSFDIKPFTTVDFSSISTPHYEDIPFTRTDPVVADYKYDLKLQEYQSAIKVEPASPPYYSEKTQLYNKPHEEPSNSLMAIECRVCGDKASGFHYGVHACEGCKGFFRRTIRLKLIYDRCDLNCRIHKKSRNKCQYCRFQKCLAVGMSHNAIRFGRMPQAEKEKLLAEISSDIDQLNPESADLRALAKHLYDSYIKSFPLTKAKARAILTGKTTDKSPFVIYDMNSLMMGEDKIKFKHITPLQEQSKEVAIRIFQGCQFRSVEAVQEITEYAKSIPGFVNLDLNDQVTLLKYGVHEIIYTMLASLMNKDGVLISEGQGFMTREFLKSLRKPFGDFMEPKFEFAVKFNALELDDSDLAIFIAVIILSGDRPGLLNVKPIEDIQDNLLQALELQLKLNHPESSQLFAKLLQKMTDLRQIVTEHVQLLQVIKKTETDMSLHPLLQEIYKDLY
T2 sequence (P19793 1-462 partner): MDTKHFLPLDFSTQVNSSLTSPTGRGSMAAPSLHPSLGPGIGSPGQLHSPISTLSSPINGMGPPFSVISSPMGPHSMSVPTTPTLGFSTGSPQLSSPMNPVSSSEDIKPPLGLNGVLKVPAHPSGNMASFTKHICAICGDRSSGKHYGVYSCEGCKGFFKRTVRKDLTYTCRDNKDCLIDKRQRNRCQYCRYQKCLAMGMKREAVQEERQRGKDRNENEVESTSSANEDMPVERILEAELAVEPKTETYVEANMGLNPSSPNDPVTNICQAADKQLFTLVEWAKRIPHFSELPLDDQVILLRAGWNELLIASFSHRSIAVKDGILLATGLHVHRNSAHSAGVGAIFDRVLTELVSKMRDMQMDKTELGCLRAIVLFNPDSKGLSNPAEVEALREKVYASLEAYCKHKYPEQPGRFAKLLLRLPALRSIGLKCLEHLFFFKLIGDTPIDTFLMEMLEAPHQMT
Briefly: PPARγ agonistic activity: luciferase reporter assay in PPARγ:RXRα:4ERPP/CHO-K1 cells. The format is cell-based. Particulars: CHO-K1, test compound 10^−6 M; luciferase activity of control compound X (1 μM) = 100%, non-administration group = 0%. In a few lines: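 CHO-K1 cells stably carrying hPPARγ/RXRα and a 4ERPP luciferase reporter, dosed with test compound for 1 day at 37 °C in Ham's F12 with 0.1% fatty acid-free BSA. Luciferase read by luminescence; activity given as % of 1 μM control compound X (100%) versus untreated (0%).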
(In general: In a reporter assay the amount or activity of a reporter protein is the signal.)

In test [1], `CCCc1c(Cc2ccc(-c3ccccc3-c3noc(=O)[nH]3)cc2F)c(=O)n([C@H]2CC[C@](C)(OCC(C)(C)O)CC2)c2nc(C)nn12` [Example 368, 6-{[3-fluoro-2′-(5-oxo-4,5-dihydro-1,2,4-oxadiazol-3-yl)biphenyl-4-yl]methyl}-4-[trans-4-(2-hydroxy-2-methylpropoxy)-4-methylcyclohexyl]-2-methyl-7-propyl[1,2,4]triazolo[1,5-a]pyrimidin-5(4H)-one] came in with an IC50 of 2.2 nM. Moreover, the activation at 1 µM in test [2] amounted to 19%.
Take `CCCCc1c(Cc2ccc(-c3ccccc3-c3noc(=O)[nH]3)cc2)c(=O)n(C2CCC(OC)CC2)c2ncnn12` (centres unmarked) [Example 148, 7-butyl-4-(4-methoxycyclohexyl)-6-{[2′-(5-oxo-4,5-dihydro-1,2,4-oxadiazol-3-yl)biphenyl-4-yl]methyl}[1,2,4]triazolo[1,5-a]pyrimidin-5(4H)-one]: in test [1], the IC50 amounted to 1.9 nM. For the same molecule, the activation at 1 µM in test [2] was found to be 52%.
The molecule `CCCc1c(Cc2ccc(-c3ccccc3-c3noc(=O)[nH]3)cc2)c(=O)n(Cc2ccc(CC)nc2)c2nc(C)nn12` [Example 7, 4-[(6-ethylpyridin-3-yl)methyl]-2-methyl-6-{[2′-(5-oxo-4,5-dihydro-1,2,4-oxadiazol-3-yl)biphenyl-4-yl]methyl}-7-propyl[1,2,4]triazolo[1,5-a]pyrimidin-5(4H)-one] yielded an IC50 in test [1] of 2.4 nM. In test [2], this molecule came in with an activation at 1 µM of 26%.
`CCCc1c(Cc2ccc(-c3ccccc3-c3noc(=O)[nH]3)cc2)c(=O)n([C@H]2CC[C@H](OCC(O)CC)CC2)c2ncnn12` (stereo partly drawn) [Example 326, 4-[trans-4-(2-hydroxybutoxy)cyclohexyl]-6-{[2′-(5-oxo-4,5-dihydro-1,2,4-oxadiazol-3-yl)biphenyl-4-yl]methyl}-7-propyl[1,2,4]triazolo[1,5-a]pyrimidin-5(4H)-one] displayed an IC50 in test [1] of 1.8 nM. In test [2], the activation at 1 µM was 29%.
Consider `CCCCc1c(Cc2ccc(-c3ccccc3-c3nnn[nH]3)cc2F)c(=O)n([C@H]2CC[C@H](OCC(C)(C)O)CC2)c2ncnn12` [Example 457, 7-butyl-6-{[3-fluoro-2′-(1H-tetrazol-5-yl)biphenyl-4-yl]methyl}-4-[trans-4-(2-hydroxy-2-methylpropoxy)cyclohexyl][1,2,4]triazolo[1,5-a]pyrimidin-5(4H)-one], for which, in test [1], the IC50 amounted to 1.8 nM. In test [2], this molecule gave an activation at 1 µM of 19%.
The corresponding values for `CCCc1c(Cc2ccc(-c3ccccc3-c3noc(=O)[nH]3)cc2)c(=O)n([C@H]2CC[C@H](OCC3(O)CC3)CC2)c2ccnn12` [Example 427, 4-{trans-4-[(1-hydroxycyclopropyl)methoxy]cyclohexyl}-6-{[2′-(5-oxo-4,5-dihydro-1,2,4-oxadiazol-3-yl)biphenyl-4-yl]methyl}-7-propylpyrazolo[1,5-a]pyrimidin-5(4H)-one] are 1.9 nM and 18%.
The corresponding values for `CCCc1c(Cc2ccc(-c3ccccc3-c3noc(=O)[nH]3)cc2)c(=O)n(C2CCC3(CC2)OC(C)(C)C(C)(C)O3)c2ncnn12` [Example 180, 6-{[2′-(5-oxo-4,5-dihydro-1,2,4-oxadiazol-3-yl)biphenyl-4-yl]methyl}-7-propyl-4-(2,2,3,3-tetramethyl-1,4-dioxaspiro[4.5]dec-8-yl)[1,2,4]triazolo[1,5-a]pyrimidin-5(4H)-one] are 3.5 nM and 31%.
In turn, `CCCc1c(Cc2ccc(-c3ccccc3-c3noc(=O)[nH]3)cc2F)c(=O)n([C@H]2CC[C@H](OCC(C)(C)O)CC2)c2nc(C)nn12` [Example 360, 6-{[3-fluoro-2′-(5-oxo-4,5-dihydro-1,2,4-oxadiazol-3-yl)biphenyl-4-yl]methyl}-4-[trans-4-(2-hydroxy-2-methylpropoxy)cyclohexyl]-2-methyl-7-propyl[1,2,4]triazolo[1,5-a]pyrimidin-5(4H)-one] came in with an IC50 in test [1] of 1.7 nM. This molecule also displayed an activation at 1 µM in test [2] of 19%.
The molecule `CCCc1c(Cc2ccc(-c3ccccc3-c3noc(=O)[nH]3)cc2F)c(=O)n([C@H]2CC[C@H](OCC3(O)CCC3)CC2)c2ncnn12` [Example 252, 6-{[3-fluoro-2′-(5-oxo-4,5-dihydro-1,2,4-oxadiazol-3-yl)biphenyl-4-yl]methyl}-4-{trans-4-[(1-hydroxycyclobutyl)methoxy]cyclohexyl}-7-propyl[1,2,4]triazolo[1,5-a]pyrimidin-5(4H)-one] registered an IC50 in test [1] of 2.4 nM. This molecule also yielded an activation at 1 µM in test [2] of 40%.
The corresponding values for `CCCCc1c(Cc2ccc(-c3ccccc3-c3noc(=O)[nH]3)cc2)c(=O)n(C2CCOC(C)(C)C2)c2ncnn12` (centres unmarked) [Example 134, 7-butyl-4-(2,2-dimethyltetrahydro-2H-pyran-4-yl)-6-{[2′-(5-oxo-4,5-dihydro-1,2,4-oxadiazol-3-yl)biphenyl-4-yl]methyl}[1,2,4]triazolo[1,5-a]pyrimidin-5(4H)-one] are 1.3 nM and 26%.
For `CCCc1c(Cc2ccc(-c3ccccc3-c3noc(=O)[nH]3)cc2)c(=O)n([C@H]2CC[C@](C)(CO)CC2)c2ncnn12` [Example 189, 4-[trans-4-(hydroxymethyl)-4-methylcyclohexyl]-6-{[2′-(5-oxo-4,5-dihydro-1,2,4-oxadiazol-3-yl)biphenyl-4-yl]methyl}-7-propyl[1,2,4]triazolo[1,5-a]pyrimidin-5(4H)-one] the same measures were 3.1 nM and 35%.
Consider `CCCc1c(Cc2ccc(-c3ccccc3-c3noc(=O)[nH]3)cc2)c(=O)n(C(C)CC)c2nc(C)nn12` (centres unmarked) [Example 68, 2-methyl-4-(1-methylpropyl)-6-{[2′-(5-oxo-4,5-dihydro-1,2,4-oxadiazol-3-yl)biphenyl-4-yl]methyl}-7-propyl[1,2,4]triazolo[1,5-a]pyrimidin-5(4H)-one], for which, in test [1], the IC50 came to 1.7 nM. In test [2], this molecule showed an activation at 1 µM of 17%.
As for `CCCc1c(Cc2ccc(-c3ccccc3-c3noc(=O)[nH]3)cc2)c(=O)n([C@H]2CC[C@H](Oc3ccc(OC)cc3)CC2)c2ncnn12` [Example 271, 4-[trans-4-(4-methoxyphenoxy)cyclohexyl]-6-{[2′-(5-oxo-4,5-dihydro-1,2,4-oxadiazol-3-yl)biphenyl-4-yl]methyl}-7-propyl[1,2,4]triazolo[1,5-a]pyrimidin-5(4H)-one], in test [1], the IC50 was found to be 2.4 nM. The molecule further displayed an activation at 1 µM in test [2] of 43%.
For `CCCc1c(Cc2ccc(-c3ccccc3-c3noc(=O)[nH]3)cc2)c(=O)n(C2CCC(=NOC3CCOCC3)CC2)c2ncnn12` (centres unmarked) [Example 195, 6-{[2′-(5-oxo-4,5-dihydro-1,2,4-oxadiazol-3-yl)biphenyl-4-yl]methyl}-7-propyl-4-{4-[(tetrahydro-2H-pyran-4-yloxy)imino]cyclohexyl}[1,2,4]triazolo[1,5-a]pyrimidin-5(4H)-one] the same measures were 2.5 nM and 19%.
Molecule `CCCCc1c(Cc2ccc(-c3ccccc3-c3noc(=O)[nH]3)cc2)c(=O)n([C@H]2CC[C@H](OC(C)C(C)(C)O)CC2)c2ncnn12` (stereo partly drawn) [Example 206, 7-butyl-4-[trans-4-(2-hydroxy-1,2-dimethylpropoxy)cyclohexyl]-6-{[2′-(5-oxo-4,5-dihydro-1,2,4-oxadiazol-3-yl)biphenyl-4-yl]methyl}[1,2,4]triazolo[1,5-a]pyrimidin-5(4H)-one] had an IC50 in test [1] of 2.2 nM. Moreover, the activation at 1 µM in test [2] came out at 23%.
In test [1], `CCCc1c(Cc2ccc(-c3ccccc3-c3noc(=O)[nH]3)cc2)c(=O)n([C@H]2CC[C@H](OCC3(O)CCC3)CC2)c2ncnn12` [Example 338, 4-{trans-4-[(1-hydroxycyclobutyl)methoxy]cyclohexyl}-6-{[2′-(5-oxo-4,5-dihydro-1,2,4-oxadiazol-3-yl)biphenyl-4-yl]methyl}-7-propyl[1,2,4]triazolo[1,5-a]pyrimidin-5(4H)-one] registered an IC50 of 1.6 nM. The molecule further gave an activation at 1 µM in test [2] of 36%.
